Data published in patent publication US3957996A (priority 1973, dated 1976).
Several values for one entry are separate records, joined by “and”; a condition that tells them apart may be missing. Identical values can stand only once. Like-named read-outs stand apart in the source and are kept apart here.

Assays:
[1] = test system: peridural space / spinal roots of dogs (digital pain, scrotal pain, weight support); assay type: in vivo, Mature male beagles
[2] = test system: sheep (anal, vulv.-scrotal and digital pain); assay type: in vivo; conditions: Compound C alone 1%
rat sciatic nerve = assay type: in vivo, Female Charles River rats
[3] = test system: inward initial sodium current; conditions: voltage-clamped giant axon; cited from earlier work
[4] = test system: outward potassium current; conditions: voltage-clamped giant axon; cited from earlier work
[5] = alone: S 0.75%, T 1%, bupivicaine 0.5%, epinephrine 1:100,000, 5 ml
[6] = compound alone 1.0%, no vasoconstrictor
[7] = compound alone 0.5%, no vasoconstrictor
[8] = local anesthetic alone: lidocaine 2.0%, dibucaine 0.125%, procaine 2.0%, no epinephrine
[9] = local anesthetic alone: lidocaine 2.0%, dibucaine 0.125%, procaine 2.0%, no epinephrine, approximate
[10] = local anesthetic alone 0.25%, no vasoconstrictor
[11] = 5 ml, epinephrine 1:100,000, lidocaine 2%
[12] = 5 ml, epinephrine 1:100,000, lidocaine 2%, saxitoxin 4 μg/ml
[13] = 1:100,000 epinephrine, procaine 1%, saxitoxin 1 μg/ml

CCCCN1CCCCC1C(=O)Nc1c(C)cccc1C (stereo not shown) [Bupivicaine, bupivacaine]
Duration of block of Digital Pain [1, 5]: 232 to 269 min
Duration of block of Scrotal Pain [1, 5]: 94 min and 139 min
Duration of block of Scrotal Pain ([1]; alone: S 0.75%, T 1%, bupivicaine 0.5%, epinephrine 1:100,000, 5 ml, listed as bupivicaine): about 94 min.

CCCN(CC(=O)Nc1c(C)cccc1C)C(C)(C)CC [Compound C, 2-(N-n-Propyl-tert. amylamino)-2',6'-acetoxylidide]
Duration of block of Scrotal Pain ([1]; C alone 1%, 10 ml, epinephrine 1:100,000, 2 animals): 192 min and 251 min
Duration of block of Digital Pain [2]: 45 to 60 min
Onset time [2]: 5 to 10 min

Cc1cccc(C)c1NC(=O)CNC1CCC1 [Compound K, 2-Cyclobutylamino-2',6'-acetoxylidide]
Frequency (rat sciatic nerve; [6]): 6/6

CCC(C)N(CC)CC(=O)Nc1c(C)cccc1C (stereo not shown) [Compound P, 2-(N-Ethyl-sec. butylamino)-2',6'-acetoxylidide]
Frequency (in words) (rat sciatic nerve; Example 5, STX 2 μg/ml in combinations): poor
Duration, mean ± S.D. (rat sciatic nerve; [7]): 45 min
Frequency (rat sciatic nerve; [7]): 2/6

CCCCOc1cc(C(=O)NCCN(CC)CC)c2ccccc2n1 [Dibucaine, dibucaine]
Duration of complete block, mean ± standard deviation (rat sciatic nerve; [8]): 170 ± 33 min
Frequency of complete block (C) (rat sciatic nerve; [8]): 5/5
Onset (rat sciatic nerve; [9]): 4 min

CCCOc1ccc(C(=O)CCN2CCCCC2)cc1 [Falicain, falicain]
Duration, mean ± S.D. (rat sciatic nerve; [10]): 94 ± 21 min
Frequency (rat sciatic nerve; [10]): 5/5
Duration, mean ± S.D. (rat sciatic nerve; local anesthetic alone 0.25%, no vasoconstrictor, listed as falicain): about 94 min.

Cc1cccc(C)c1NC(=O)CN(C)C [H, 2-Dimethylamino-2'-6'-acetoxylidide]
Frequency (rat sciatic nerve; [7]): 5/6
Duration, mean ± S.D. (rat sciatic nerve; [6]): 76 ± 12 min
Frequency (rat sciatic nerve; [6]): 6/6

CCNCC(=O)Nc1c(C)cccc1C [J, 2-Ethylamino-2',6'-acetoxylidide]
Frequency (rat sciatic nerve; [6]): 6/6

CCC(C)(C)NCC(=O)Nc1c(C)cccc1C [L, 2-tert. Amylamino-2',6'-acetoxylidide]
Frequency (rat sciatic nerve; [7]): 6/6
Duration, mean ± S.D. (rat sciatic nerve; [6]): 101 ± 8 min
Frequency (rat sciatic nerve; [6]): 6/6

CCN(CC)CC(=O)Nc1c(C)cccc1C [Lidocaine, lidocaine]
Duration: mean, Weight Support [1, 11]: 137 min
Duration: range, Weight Support [1, 11]: 108 to 162 min
Duration: mean, Digital Pain [1, 12]: 127 min
Duration: mean, Scrotal Pain [1, 12]: 111 min
Duration: range, Digital Pain [1, 12]: 72 to 162 min
Duration: range, Scrotal Pain [1, 12]: 62 to 152 min
Onset: mean, Digital Pain [1, 12]: 7 min
Onset: mean, Scrotal Pain [1, 12]: 8 min
Onset: mean, Weight Support [1, 12]: 5 min
Onset: range, Digital Pain [1, 12]: 5 to 13 min
Onset: range, Scrotal Pain [1, 12]: 5 to 13 min
Onset: range, Weight Support [1, 12]: 3 to 6 min
Duration (salient points, in words) ([1]; Table III footnote): short
Frequency (salient points, in words) ([1]; Table III footnote): good
Duration of complete block, mean ± standard deviation (rat sciatic nerve; [8]): 141 ± 28 min
Frequency of complete block (C) (rat sciatic nerve; [8]): 5/5
Onset (rat sciatic nerve; [9]): 1 min

CCCCN(C)CC(=O)Nc1c(C)cccc1C [M, 2-(N-Methyl-n-butylamino)-2',6'-acetoxylidide]
Frequency (rat sciatic nerve; [6]): 5/6

CCCCOc1ccc(OCCCN2CCOCC2)cc1 [Pramoxine, pramoxine]
Anesthetic effect (in words) (rat sciatic nerve; Example 5, STX 2 μg/ml or pramoxine 0.25% alone): no anesthetic effect whatever was observed
Duration, mean ± S.D. (rat sciatic nerve; [10]): 0 min
Frequency (rat sciatic nerve; [10]): 0/5

CCN(CC)CCOC(=O)c1ccc(N)cc1 [Procaine, procaine]
Effect on inward (initial) sodium current (in words) [3]: reduce
Duration, mean ± standard deviation (rat sciatic nerve; [13]): 104 ± 15 min
Frequency (rat sciatic nerve; [13]): 100%
Onset (rat sciatic nerve; [13]): 2 min
Duration of complete block, mean ± standard deviation (rat sciatic nerve; [8]): 99 ± 8 min
Frequency of complete block (C) (rat sciatic nerve; [8]): 5/5
Onset (rat sciatic nerve; [9]): 1 min
Effect on outward potassium current (in words) [4]: reduce

Cc1cccc(C)c1NC(=O)C(C)N (stereo not shown) [Q, 2-Amino-2',6'-propionoxylidide]
Frequency (rat sciatic nerve; [7]): 4/6
Duration, mean ± S.D. (rat sciatic nerve; [6]): 79 ± 19 min
Frequency (rat sciatic nerve; [6]): 5/6

CCCN(CC)C(CC)C(=O)Nc1c(C)cccc1C (stereo not shown) [S, 2-(N-Ethyl-n-propylamino)-2',6'-butyroxylidide]
Duration of block of Digital Pain [1, 5]: 151 (77-256) min.
Duration of block of Scrotal Pain [1, 5]: 128 (82-173) min.

CCCC(C(=O)Nc1c(C)cccc1C)N(CC)CC (stereo not shown) [T, 2-Diethylamino-2',6'-valeroxylidide]
Duration of block of Digital Pain [1, 5]: 301 (238-365) min.
Duration of block of Scrotal Pain [1, 5]: 202 (185-218) min.

COC(=O)[C@H]1[C@@H](OC(=O)c2ccccc2)C[C@@H]2CC[C@H]1N2C [cocaine]
Effect on inward (initial) sodium current (in words) [3]: reduce
Effect on outward potassium current (in words) [4]: reduce
